Source: patent US20230049917A1, “Pharmaceutical Composition of CASR Modulators and Methods and Uses Thereof” (Lupin Limited, priority 2019, published 2023)

Legend:
[1] = First-in-human Phase 1 single- and multiple-dose study; assay type: in vivo; settings: healthy subjects
[2] = Pharmacokinetic analysis after oral administration of the formulation to rats; assay type: in vivo; settings: male, Sprague Dawley, rat, in vivo, po, 5 mg/kg
Method: Male Sprague Dawley Rats (weight 225±25 gm; aged 8 to 10 weeks) were administered orally with the formulation. Each of the tested compounds was dosed at 5 mg/kg at a dose volume of 1 mL/kg. Blood samples were collected at time points 0.25, 0.5, 1, 2, 4, 6, 8 and 24 hours and analyzed the plasma concentrations of administered compound and calculated PK parameters. The plasma concentrations of the tested compounds were measured by liquid chromatography with tandem mass spectrometry (LCMS-MS) using […] extraction method. The plasma concentration-time data was subjected to Non-Compartmental Analysis using Phoenix WinNonlin® (Version 5.3) software to assess the pharmacokinetic parameters. Peak plasma concentrations (Cmax) and time for the peak plasma concentrations (Tmax) were the observed values. The area under the concentration time curve (AUC) was calculated by linear trapezoidal rule.

[3] = Phase 2 Main Study: phosphate change from baseline; assay type: in vivo, human
Method: For PK-PD assessments, blood samples for PK assessments were collected at scheduled time points (Screening Period; Day 1 (Pre-dose and post-dose); Day 2; Day 8 EOT (Pre-dose and post-dose); Day 9; Day 10; and Day 15+/−3 days (Follow-up visit)) in the PK-PD study. The PD profiling was done in parallel to the PK profiling in the PK-PD study. Blood samples (approximately 1×4 mL) for PK assessments were collected by venipuncture or cannulation at the selected time points into tubes containing dipotassium ethylenediaminetetraacetic acid (K2EDTA) anti-coagulant. The collected blood sample were kept on ice until centrifugation and later centrifuged at 4 °C at 5000 rpm for 10 minutes and the separated plasma collected in 2 tubes/aliquots. The plasma samples were stored at −20 °C or lower at the clinical centre until they were shipped for analysis. Blood samples (approximately 1×8 mL) for PD assessments were collected in PK-PD study and Main Study at selected time points The Main Study's selected time points were Screening Period; Day 1; Day 8+/−3 days; Day 15+/−3 days; Day 30+/−3 days; Day 60+/−3 days; and Day 90+/−3 days (EOT/Early Discontinuations). Blood samples (approximately 1×5 mL) for exploratory PD assessments for PK-PD study and Main Study were collected at selected time points.
Change from baseline to all measured and relevant time points was calculated. The baseline value for this study was the higher of the 2 values obtained during screening period for serum iPTH concentration, corrected total serum calcium and phosphorous. The baseline value for all other parameters was the last valid and planned visit value prior to first dose of IP in the study. For continuous data, summary statistics included the number, arithmetic mean, standard deviation (SD), median, minimum and maximum. For categorical data, frequency and percentage were presented.

[4] = Non-clinical studies: hypocalcaemia at efficacious doses; assay type: in vivo
cytochrome P450 2D6 = cytochrome P450 2D6 (Homo sapiens, UniProt P10635); test: Cytochrome P450 2D6 liability; assay type: in vitro ADME
Sequence of cytochrome P450 2D6 (P10635 whole entry, species assumed): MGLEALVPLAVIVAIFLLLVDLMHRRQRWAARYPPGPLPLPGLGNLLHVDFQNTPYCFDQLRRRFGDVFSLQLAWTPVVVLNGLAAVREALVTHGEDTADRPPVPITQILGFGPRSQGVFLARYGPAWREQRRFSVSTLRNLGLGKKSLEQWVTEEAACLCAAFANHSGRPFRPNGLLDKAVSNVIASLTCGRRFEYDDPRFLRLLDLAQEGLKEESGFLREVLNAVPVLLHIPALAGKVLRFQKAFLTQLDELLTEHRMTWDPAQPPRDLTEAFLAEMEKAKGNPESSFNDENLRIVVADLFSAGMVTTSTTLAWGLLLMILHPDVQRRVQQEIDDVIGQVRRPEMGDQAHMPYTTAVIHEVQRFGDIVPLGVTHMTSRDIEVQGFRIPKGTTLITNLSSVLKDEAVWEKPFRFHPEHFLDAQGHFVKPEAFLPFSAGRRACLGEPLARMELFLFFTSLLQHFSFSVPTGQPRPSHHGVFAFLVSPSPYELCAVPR

iPTH = test: Phase 2 PK-PD Study: iPTH suppression in CKD patients with SHPT; assay type: in vivo, human; settings: 25 mg once daily
Method: A randomized, double-blind, placebo-controlled phase 2 clinical study was conducted to assess the efficacy, pharmacokinetics (PK), pharmacodynamics (PD) and safety of 2-methyl-5-((2R,4S)-2-((((R)-1-(naphthalen-1-yl)ethyl)amino)methyl) chroman yl)benzoic acid, hydrochloride (Compound 3), as a monotherapy in patients with CKD with secondary hyperparathyroidism (SHPT). The patients enrolled in the study were either on dialysis or not on dialysis. Patients could continue taking doses (whether stable dosing or otherwise) of calcium supplements, phosphate binders, vitamin D, vitamin D analogues or a combination thereof for the treatment of SHPT in combination with Compound 3. Patients can take at least one calcium supplement, phosphate binder, vitamin D, vitamin D analogue or a combination thereof concurrently or concomitantly with Compound 3. Dosing for such calcium supplements, phosphate binders, vitamin D, vitamin D analogues or a combination thereof for the treatment of SHPT can be individualized based on patient's iPTH levels, and/or can correlate with doses presently used for the treatment of SHPT.
This was an open-label, non-randomized, single arm study enrolling 10 patients of which 6 patients were on dialysis and 4 were not on dialysis. All patients received 25 mg Compound 3, once daily for […], and thereafter underwent PK-PD assessments. All 6 patients (100%) on dialysis group completed the study while 2 patients out of 4 (50%) on not on dialysis group completed the study. One objective of this study were to determine PK parameters maximum concentration, time to maximum concentration, area under the curve (AUC) (AUC from time 0 up to the last quantifiable concentration; AUC from time 0 to infinity; AUC from time 0 to 24 hours), half-life, apparent clearance, and apparent volume of distribution from blood samples collected at scheduled time-points. Yet another objective of this study was to determine PD parameters mean absolute change and mean percentage change from baseline in corrected total serum calcium and phosphorus.
For efficacy assessments, the primary efficacy assessment included measurement of iPTH and the exploratory efficacy assessment included measurement of parathyroid gland size at scheduled time points. Blood samples for measurement of iPTH were collected during Day −30 to Day −1 (Screening Period); Day 1; Day 8+/−3 days; Day 15+/−3 days; Day 30+/−3 days; Day 60+/−3 days; and Day 90+/−3 days (EOT/Early Discontinuations). […] If the blood sample collected on Day 90 could not be analysed for any reason, the second blood sample had to be collected within 3 days of end of treatment (EOT). Chemiluminescence microparticles immunoassay (CMIA) (such as Abbott's ARCHITECT® Intact PTH assay) was used to quantify iPTH in serum and plasma. […]

- AUC(0-t) [2]: 15 ± 4 µM·h
- Cmax [2]: 3.4 ± 1 µM
- Tmax [2]: 0.5 to 2 h
- phosphorous levels due to administration over a period of 90 days ([3]; CKD patients not on dialysis): no increase
- phosphorous levels due to administration over a period of 90 days ([3]; CKD patients on dialysis): no increase
- difference in mean percentage change in phosphate from baseline at the end of 90 days versus Placebo ([3]; patients not on dialysis, 10 mg and 5 mg arms): not significant
- difference in mean percentage change in phosphate from baseline at the end of 90 days versus Placebo ([3]; patients on dialysis, 10 mg, 20 mg and 25 mg arms): not significant
- hypocalcaemia [4]: No hypocalcaemia
- cytochrome P450 2D6 liabilities (cytochrome P450 2D6): devoid
SMILES: Cc1ccc([C@@H]2C[C@H](CN[C@H](C)c3cccc4ccccc34)Oc3ccccc32)cc1C(=O)O.Cl [Compound 3, 2-methyl-5-((2R,4S)-2-((((R)-1-(naphthalen-1-yl)ethyl)amino)methyl)chroman-4-yl)benzoic acid hydrochloride]
- safety and tolerability [1]: safe and well tolerated
- peak effect on iPTH suppression from baseline (iPTH; Day 1, within 4 hours of dosing, patients on dialysis and not on dialysis): > 80.0%
- time of peak effect on iPTH suppression after dosing (iPTH; Day 1 and Day 8): ≤ 4 h
- peak effect on iPTH suppression from baseline (iPTH; Day 8, within 4 hours of dosing, patients not on dialysis): > 85.0%
- peak effect on iPTH suppression from baseline (iPTH; Day 8, within 4 hours of dosing, patients on dialysis): > 70.0%
